Test results from patent US6514997B2, “Antipicornaviral compounds and compositions, their pharmaceutical uses, and materials for their synthesis” (Agouron Pharmaceuticals, Inc., priority 1999, dated 2003).
pEC50: −log10 of the molar value. Where two headings read alike, the source gives them in different places.

What was measured:
[1] = tested on: HRV-14; experiment: Antirhinoviral H1-HeLa cell culture assay (XTT cell protection, EC50), HRV-14; type: cell-based, human rhinovirus (HRV) serotype-14 in H1-HeLa cells; settings: Rhinovirus B, HRV14, H1-HeLa
Method: Antirhinoviral H1-HeLa Cell Culture Assay:
(§1) In this cell protection assay, the ability of compounds to protect cells against HRV infection was measured by the XTT dye reduction method, which is described in Weislow et al., J. Natl. Cancer Inst. […] H1-HeLa cells were infected with HRV-14 at a multiplicity of infection (m.o.i.) of 0.13 (virus particles/cell) or mock-infected with medium only. Infected or mock-infected cells were resuspended at 8×10^5 cells per mL, and incubated with appropriate concentrations of the compounds to be tested. Two days later, XTT/PMS was added to test plates and the amount of formazan produced was quantified spectrophotometrically at 450/650 nm. […] The therapeutic index (TI) was calculated by dividing the CC50 value by the EC50 value.
(§2) All strains of human rhinovirus (HRV) for use in this assay were purchased from American Type Culture Collection (ATCC), except for HRV serotype-14 (produced from the infectious cDNA clone constructed by Dr. Robert Rueckert, Institute for Molecular Virology, University of Wisconsin, Madison, Wis.). HRV stocks were propagated and viral assays were performed in H1-HeLa cells (ATCC). Cells were grown in minimal essential medium with 10% fetal bovine serum, available from Life Technologies (Gaithersburg, Md.).

[2] = molecular target: T1, Recombinant rhinovirus 3C protease, serotype 14 (Human rhinovirus 14, UniProt P03303); experiment: Inhibition of rhinovirus 3C protease (FRET assay, kobs/[I]), serotype 14; type: biochemical; settings: pH 7.6; HRV-14; read-out: kobs/[I] (3C protease inhibition activity)
T1 construct: Recombinant rhinovirus 3C proteases; made in house
T1 sequence (P03303 1538-1719): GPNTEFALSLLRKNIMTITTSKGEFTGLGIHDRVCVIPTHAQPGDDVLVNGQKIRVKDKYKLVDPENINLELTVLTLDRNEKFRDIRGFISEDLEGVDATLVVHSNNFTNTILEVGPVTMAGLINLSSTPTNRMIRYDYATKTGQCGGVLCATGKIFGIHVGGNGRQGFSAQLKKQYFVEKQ
Method: Inhibition of Rhinovirus 3C Protease:
Stock solutions (50 mM, in DMSO) of various compounds were prepared; dilutions were in the same solvent. Recombinant rhinovirus 3C proteases (see Birch et al., “Purification of recombinant human rhinovirus 14 3C protease expressed in Escherichia coli,” Protein Expr. Pur. (1995), vol. 6(5), 609-618) from serotypes 14, 16, and 2 were prepared by the following standard chromatographic procedures: (1) ion exchange using Q Sepharose Fast Flow from Pharmacia; (2) affinity chromatography using Affi-Gel Blue from Biorad; and (3) sizing using Sephadex G-100 from Pharmacia. Each assay sample contained 2% DMSO, 50 mM tris pH 7.6, 1 mM EDTA, a test compound at the indicated concentration, approximately 1 μM substrate, and 50-100 nM protease. The kobs/I values were obtained from reactions initiated by addition of enzyme rather than substrate. RVP activity was measured in the fluorescence resonance energy transfer assay. The substrate was (N-terminal) DABCYL-([…]-EDANS. In the uncleaved peptide, the EDANS fluorescence was quenched by the proximal DABCYL moiety. When the peptide was cleaved, the quenching was relieved, and activity was measured as an increase in fluorescence signal. The tabulated data in the column designated kobs/[I] were measured from progress curves in enzyme start experiments.

[3] = Cytotoxicity (CC50) in mock-infected H1-HeLa cells, XTT dye reduction; type: cell-based, human; settings: human, H1-HeLa cells, mock-infected; line of HRV-14
Method: as §1, §2
Coxsackievirus types A-21 (CAV-21) and B3 (CVB3) were purchased from American Type Culture Collection (ATCC, Rockville, Md.). Virus stocks were propagated and antiviral assays were performed in H1-HeLa cells (ATCC). Cells were grown in minimal essential medium with 10% fetal bovine serum (Life Technologies, Gaithersburg, Md.). The ability of the compounds of this invention to protect cells against either CAV-21 or CVB3 infection was measured by the XTT dye reduction method. This method is described in Weislow et al., J. Natl. Cancer Inst. […] H1-HeLa cells were infected with CAV-21 or CVB3 at a multiplicity of infection (m.o.i.) of 0.025 or 0.075, respectively, or mock-infected with medium only. H1-HeLa cells were plated at 4×10^4 cells per well in a 96-well plate and incubated with appropriate concentrations of the test compound. One day (CVB3) or two days (CAV-21) later, XTT/PMS was added to test plates and the amount of formazan produced was quantified spectrophotometrically at 450/650 nm. […] The therapeutic index (TI) was calculated by dividing the CC50 by the EC50.

Structure (SMILES)	pEC50 [1]	kinact/KI [2]	CC50 at 2 days [3]	pEC50 ([1]; HRV-14, read-out: EC50)
CCOC(=O)/C=C/[C@H](C[C@H]1CCNC1=O)NC(=O)[C@H](Cc1ccccc1)n1cccc(NC(=O)OCc2ccccc2)c1=O [Compound 21, trans-(2′S,3′″R,4S)-4-[2′-(3″-Benzyloxycarbonylamino-2″-oxo-2″H-pyridin-1″-yl)-3′-phenylpropionylamino]-5-(2′″-oxopyrrolidin-3′″-yl)pent-2-enoic Acid Ethyl Ester]	6.33	6340 M⁻¹ s⁻¹	> 10 µM	
CCOC(=O)/C=C/[C@H](C[C@@H]1CCNC1=O)NC(=O)Cn1cccc(NC(=O)c2cc(C)on2)c1=O [Compound 22, trans-(4S,3″″S)-4-(2′-{3″-[(5′″-Methylisoxazole-3′″-carbonyl)amino]-2″-oxo-2″H-pyridin-1″-yl}acetylamino)-5-(2″″-oxopyrrilidin-3″″-yl)pent-2-enoic Acid Ethyl Ester]	6.00	18500 M⁻¹ s⁻¹	> 10 µM	
O=C1OCC/C1=C\[C@H](C[C@@H]1CCNC1=O)NC(=O)[C@H](Cc1ccc(F)cc1)n1cccc(NC(=O)c2cc(Cl)on2)c1=O [Compound 23, trans-(2″S,2″S,3″″″S)-5-Chloroisoxazole-3-carboxylic Acid (1′-{2″-(4′″-fluorophenyl)-1″-[2″″-(2′″″-oxodihydrofuran-3′″″-ylidene)-1″″-(2″″″-oxopyrrolidin-3″″″-ylmethyl)ethylcarbamoyl]ethyl}-2′-oxo-1′,2′′-dihydropyridin-3′-yl)amide]		385000 M⁻¹ s⁻¹	> 10 µM	7.19
CCOC(=O)/C=C/[C@H](CCC(N)=O)NC(=O)[C@H](Cc1ccccc1)n1cccc(NC(=O)c2cc(Cl)on2)c1=O [Compound 30, trans-(2′S,4S)-6-Carbamoyl-4-(2′-{3″-[(5′″-chloroisoxazole-3′″-carbonyl)amino]-2″-oxo-2″H-pyridin-1″-yl}-3′-phenylpropionylamino)hex-2-enoic Acid Ethyl Ester]		134000 M⁻¹ s⁻¹	> 10 µM	7.62
CC[C@@H](C(=O)N[C@H](/C=C/C(=O)O)C[C@@H]1CCNC1=O)n1cccc(NC(=O)c2cc(C)on2)c1=O [Compound 35, trans-(2S,3″″S,4S)-4-(2′-{3″-[(5′″-Methylisoxazole-3′″-carbonyl)amino]-2″-oxo-2″H-pyridin-1″-yl}butyrylamino)-5-(2″″-oxopyrrolidin-3″″-yl)pent-2-enoic Acid]	< 5.00	220 M⁻¹ s⁻¹	> 10 µM	
CCOC(=O)/C=C/[C@H](CCC(N)=O)NC(=O)[C@@H]1CCc2ccc(NC(=O)OCc3ccccc3)c(=O)n21 [Compound 36, trans-(3′S,4S)-4-[(6′-Benzyloxycarbonylamino-5′-oxo-1′,2′,3′,5′-tetrahydroindolizine-3′-carbonyl)amino]-6-carbamoylhex-2-enoic Acid Ethyl Ester]		4540 M⁻¹ s⁻¹	> 100 µM	5.05
C#CC[C@@H](C(=O)N[C@H](/C=C/C(=O)O)C[C@@H]1CCNC1=O)n1cccc(NC(=O)c2cc(C)on2)c1=O [Compound 43, trans-(2′S,3′″″S,4S)-4-[2′-(3″-{[1′″-(5″″-Methylisoxazol-3″″-yl)methanoyl]amino}-2′″-oxo-2′″H-pyridin-1′″-yl)pent-4″-ynoylamino]-5-(2′″″-oxopyrrolidin-3′″″-yl)pent-2-enoic Acid]	< 5.00	382 M⁻¹ s⁻¹	> 10 µM	
